Assay results published in ChEMBL document CHEMBL1201862, “PubChem BioAssay data set” (2004).
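Grown in 96-well plates, cells were treated for 48 hours with each compound at five concentrations. Insufficient inhibition: endpoint recorded as highest concentration tested. GI50 is the concentration that inhibits growth by half.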 Active and inactive are the calls of the source. Rule as the data show it: active = GI50 up to about 1.1 µM and inactive = higher. Residues, ends and D or L forms follow the SMILES beside them. *: point of attachment. Pentanoyl = CCCCC(=O)*; Boc = CC(C)(C)OC(=O)*

Columns and labels:
Assay in all cases: NCI anticancer screen, dose series, 48 h
ACHN = test system: ACHN
CCRF-CEM = test system: CCRF-CEM
HCT-116 = test system: HCT-116
KM12 = test system: KM12
LOX IMVI = test system: LOX IMVI
MCF7 = test system: MCF7
MDA-N = test system: MDA-N
NCI/ADR-RES = test system: NCI/ADR-RES
OVCAR-3 = test system: OVCAR-3
OVCAR-4 = test system: OVCAR-4
PC-3 = test system: PC-3
RXF 393 = test system: RXF 393
SF-268 = test system: SF-268
SF-295 = test system: SF-295
SK-MEL-2 = test system: SK-MEL-2
SW-620 = test system: SW-620
T47D = test system: T47D
UO-31 = test system: UO-31
SR = test system: SR

SMILES: Oc1ccc(Cl)cc1CN1CCN(Cc2cc(Cl)ccc2O)C1
- GI50 (ACHN): 0.465 µM (active)
- GI50 (CCRF-CEM): 0.0603 µM (active)
- GI50 (HCT-116): 0.234 µM (active)
- GI50 (KM12): 1.08 µM (active)
- GI50 (LOX IMVI): 0.489 µM (active)
- GI50 (MCF7): 10.5 µM (inactive)
- GI50 (MDA-N): 1.79 µM (inactive)
- GI50 (NCI/ADR-RES): 0.152 µM (active)
- GI50 (OVCAR-3): 0.367 µM (active)
- GI50 (OVCAR-4): 1.3 µM (inactive)
- GI50 (PC-3): 0.206 µM (active)
- GI50 (RXF 393): 0.895 µM (active)
- GI50 (SF-268): 1.09 µM (active)
- GI50 (SF-295): 0.682 µM (active)
- GI50 (SK-MEL-2): 1.73 µM (inactive)
- GI50 (SW-620): 0.547 µM (active)
- GI50 (T47D): 1.84 µM (inactive)
- GI50 (UO-31): 0.536 µM (active)

SMILES: CCCc1cc(=O)oc2c3c(c4c(c12)OC(C)(C)CC4)O[C@H](C)[C@@H](C)[C@H]3O
- GI50 (CCRF-CEM): 14.1 µM (inactive)
- GI50 (HCT-116): 15.5 µM (inactive)
- GI50 (KM12): 12.8 µM (inactive)
- GI50 (LOX IMVI): 14.8 µM (inactive)
- GI50 (MCF7): 16.3 µM (inactive)
- GI50 (MDA-N): 5.56 µM (inactive)
- GI50 (NCI/ADR-RES): 11.2 µM (inactive)
- GI50 (OVCAR-3): 18.5 µM (inactive)
- GI50 (OVCAR-4): 14.2 µM (inactive)
- GI50 (PC-3): 10.1 µM (inactive)
- GI50 (RXF 393): 21.3 µM (inactive)
- GI50 (SF-268): 17.4 µM (inactive)
- GI50 (SF-295): 16.2 µM (inactive)
- GI50 (SK-MEL-2): 24.7 µM (inactive)
- GI50 (SW-620): 17 µM (inactive)
- GI50 (T47D): 12 µM (inactive)
- GI50 (UO-31): 13.8 µM (inactive)

SMILES: Nc1ccc(Oc2ccc(C34CC5CC(C3)CC(c3ccc(Oc6ccc(N)cc6C(F)(F)F)cc3)(C5)C4)cc2)c(C(F)(F)F)c1
- GI50 (ACHN): 32.9 µM (inactive)
- GI50 (CCRF-CEM): 36.1 µM (inactive)
- GI50 (HCT-116): 24.9 µM (inactive)
- GI50 (KM12): 21 µM (inactive)
- GI50 (LOX IMVI): 17.9 µM (inactive)
- GI50 (MCF7): 13.4 µM (inactive)
- GI50 (MDA-N): 36.6 µM (inactive)
- GI50 (NCI/ADR-RES): 21.7 µM (inactive)
- GI50 (OVCAR-3): 17.9 µM (inactive)
- GI50 (OVCAR-4): 36.6 µM (inactive)
- GI50 (PC-3): 14.8 µM (inactive)
- GI50 (RXF 393): 11.1 µM (inactive)
- GI50 (SF-268): 17.4 µM (inactive)
- GI50 (SF-295): 25.3 µM (inactive)
- GI50 (SK-MEL-2): 14.1 µM (inactive)
- GI50 (SW-620): 36.3 µM (inactive)
- GI50 (T47D): 15.1 µM (inactive)
- GI50 (UO-31): 39.1 µM (inactive)

SMILES: ClC(Cl)(Cl)C1CCOC1n1nnc2ccccc21 (stereo not drawn)
- GI50 (CCRF-CEM): 44.1 µM (inactive)
- GI50 (HCT-116): 92.9 µM (inactive)
- GI50 (MCF7): > 100 µM (inactive)
- GI50 (MDA-N): > 100 µM (inactive)
- GI50 (NCI/ADR-RES): 42.2 µM (inactive)
- GI50 (OVCAR-3): > 100 µM (inactive)
- GI50 (PC-3): > 100 µM (inactive)
- GI50 (RXF 393): > 100 µM (inactive)
- GI50 (SF-268): > 100 µM (inactive)
- GI50 (SF-295): > 100 µM (inactive)
- GI50 (SK-MEL-2): > 100 µM (inactive)
- GI50 (T47D): > 100 µM (inactive)

SMILES: CC(C)c1cc(C(C)C)c(S(=O)(=O)N/N=C2\CC3CCC2(C)C3(C)C)c(C(C)C)c1 (stereo not drawn)
- GI50 (ACHN): 15 µM (inactive)
- GI50 (CCRF-CEM): 4.69 µM (inactive)
- GI50 (HCT-116): 17.8 µM (inactive)
- GI50 (KM12): 36.1 µM (inactive)
- GI50 (MCF7): 10 µM (inactive)
- GI50 (MDA-N): 15.1 µM (inactive)
- GI50 (NCI/ADR-RES): 20.8 µM (inactive)
- GI50 (OVCAR-3): 33.7 µM (inactive)
- GI50 (OVCAR-4): 29 µM (inactive)
- GI50 (PC-3): 18.3 µM (inactive)
- GI50 (RXF 393): 11.7 µM (inactive)
- GI50 (SF-268): 34.9 µM (inactive)
- GI50 (SF-295): 10.4 µM (inactive)
- GI50 (SK-MEL-2): 18.9 µM (inactive)
- GI50 (SW-620): 57.1 µM (inactive)
- GI50 (T47D): 11.8 µM (inactive)
- GI50 (UO-31): 30.4 µM (inactive)

SMILES: CC(C)(C)C1=C(Br)C(OC(=O)C(F)(F)F)(C(C)(C)C)OP1(=O)c1ccccc1 (stereo not drawn)
- GI50 (ACHN): 32.7 µM (inactive)
- GI50 (HCT-116): 33 µM (inactive)
- GI50 (KM12): 63 µM (inactive)
- GI50 (LOX IMVI): 45.8 µM (inactive)
- GI50 (MCF7): 42.7 µM (inactive)
- GI50 (MDA-N): 60.8 µM (inactive)
- GI50 (NCI/ADR-RES): 35.1 µM (inactive)
- GI50 (OVCAR-3): 31.9 µM (inactive)
- GI50 (OVCAR-4): 49.1 µM (inactive)
- GI50 (PC-3): 18.1 µM (inactive)
- GI50 (SF-268): 61.4 µM (inactive)
- GI50 (SF-295): 35.3 µM (inactive)
- GI50 (SK-MEL-2): 29.2 µM (inactive)
- GI50 (T47D): 30 µM (inactive)
- GI50 (UO-31): 52.5 µM (inactive)

SMILES: CC1CC[C@@]2(OC1)OC1CC3C4CCC5C[C@@H](OC6OC(CO)C(OC7OC(CO)C(O)C(OC8OC(CO)C(O)C(OC9OC(CO)C(O)C(O)C9O)C8O)C7OC7OC(CO)C(O)C(O)C7O)C(O)C6O)[C@H](O)C[C@]5(C)C4CC[C@]3(C)C1[C@@H]2C (stereo partly drawn)
- GI50 (ACHN): > 80.5 µM (inactive)
- GI50 (CCRF-CEM): > 80.5 µM (inactive)
- GI50 (HCT-116): > 80.5 µM (inactive)
- GI50 (KM12): > 80.5 µM (inactive)
- GI50 (LOX IMVI): > 80.5 µM (inactive)
- GI50 (MCF7): > 80.5 µM (inactive)
- GI50 (MDA-N): > 80.5 µM (inactive)
- GI50 (NCI/ADR-RES): > 80.5 µM (inactive)
- GI50 (OVCAR-3): > 80.5 µM (inactive)
- GI50 (OVCAR-4): > 80.5 µM (inactive)
- GI50 (PC-3): > 80.5 µM (inactive)
- GI50 (RXF 393): > 80.5 µM (inactive)
- GI50 (SF-268): > 80.5 µM (inactive)
- GI50 (SF-295): > 80.5 µM (inactive)
- GI50 (SW-620): > 80.5 µM (inactive)
- GI50 (T47D): > 80.5 µM (inactive)

SMILES: CCCCC(=O)Oc1ccc(CC(NC(=O)OC(C)(C)C)C(=O)NC(C)C(=O)NC(Cc2ccccc2)C(=O)NCC(N)=O)cc1 (stereo not drawn) (Boc-Y(Pentanoyl)AFG-NH2; configuration not given here)
- GI50 (ACHN): > 100 µM (inactive)
- GI50 (CCRF-CEM): 40.6 µM (inactive)
- GI50 (HCT-116): 21.4 µM (inactive)
- GI50 (KM12): 23.7 µM (inactive)
- GI50 (LOX IMVI): 16.1 µM (inactive)
- GI50 (MCF7): 20.5 µM (inactive)
- GI50 (MDA-N): 25.9 µM (inactive)
- GI50 (NCI/ADR-RES): > 100 µM (inactive)
- GI50 (OVCAR-3): 20.4 µM (inactive)
- GI50 (OVCAR-4): 74.1 µM (inactive)
- GI50 (PC-3): 43.9 µM (inactive)
- GI50 (RXF 393): 44.5 µM (inactive)
- GI50 (SF-268): 31.6 µM (inactive)
- GI50 (SF-295): 63.8 µM (inactive)
- GI50 (SK-MEL-2): 20.7 µM (inactive)
- GI50 (SW-620): 44.8 µM (inactive)
- GI50 (T47D): 27.4 µM (inactive)
- GI50 (UO-31): > 100 µM (inactive)

SMILES: Cc1cn2cc(-c3cccs3)nc2s1
- GI50 (ACHN): > 88.5 µM (inactive)
- GI50 (CCRF-CEM): 54.6 µM (inactive)
- GI50 (HCT-116): > 100 µM (inactive)
- GI50 (KM12): 43.9 µM (inactive)
- GI50 (LOX IMVI): > 45.9 µM (inactive)
- GI50 (MCF7): > 53.5 µM (inactive)
- GI50 (MDA-N): > 72.6 µM (inactive)
- GI50 (OVCAR-3): > 100 µM (inactive)
- GI50 (OVCAR-4): > 100 µM (inactive)
- GI50 (PC-3): > 74.3 µM (inactive)
- GI50 (RXF 393): > 100 µM (inactive)
- GI50 (SF-268): > 91.8 µM (inactive)
- GI50 (SF-295): > 100 µM (inactive)
- GI50 (SK-MEL-2): > 100 µM (inactive)
- GI50 (SR): > 67.6 µM (inactive)
- GI50 (SW-620): > 100 µM (inactive)
- GI50 (T47D): 25.4 µM (inactive)
- GI50 (UO-31): 48.8 µM (inactive)

SMILES: CC(C)(C)c1cc(-c2cc(C(C)(C)C)[nH]n2)[nH]n1
- GI50 (ACHN): > 100 µM (inactive)
- GI50 (CCRF-CEM): 39.4 µM (inactive)
- GI50 (HCT-116): > 100 µM (inactive)
- GI50 (LOX IMVI): 93.3 µM (inactive)
- GI50 (MCF7): > 100 µM (inactive)
- GI50 (MDA-N): > 100 µM (inactive)
- GI50 (OVCAR-3): > 100 µM (inactive)
- GI50 (OVCAR-4): > 100 µM (inactive)
- GI50 (PC-3): > 100 µM (inactive)
- GI50 (RXF 393): > 100 µM (inactive)
- GI50 (SF-268): > 100 µM (inactive)
- GI50 (SF-295): > 100 µM (inactive)
- GI50 (SK-MEL-2): > 100 µM (inactive)
- GI50 (SR): 39.1 µM (inactive)
- GI50 (SW-620): > 100 µM (inactive)
- GI50 (T47D): > 100 µM (inactive)
- GI50 (UO-31): > 100 µM (inactive)

SMILES: CC(O)CN1c2ccccc2Sc2ccccc21 (stereo not drawn)
- GI50 (ACHN): > 100 µM (inactive)
- GI50 (CCRF-CEM): > 100 µM (inactive)
- GI50 (HCT-116): > 100 µM (inactive)
- GI50 (KM12): > 100 µM (inactive)
- GI50 (LOX IMVI): > 100 µM (inactive)
- GI50 (MCF7): > 100 µM (inactive)
- GI50 (MDA-N): > 100 µM (inactive)
- GI50 (NCI/ADR-RES): > 100 µM (inactive)
- GI50 (OVCAR-3): > 100 µM (inactive)
- GI50 (OVCAR-4): > 100 µM (inactive)
- GI50 (PC-3): > 100 µM (inactive)
- GI50 (RXF 393): > 100 µM (inactive)
- GI50 (SF-268): > 100 µM (inactive)
- GI50 (SF-295): > 100 µM (inactive)
- GI50 (SW-620): > 100 µM (inactive)
- GI50 (T47D): > 100 µM (inactive)
- GI50 (UO-31): > 100 µM (inactive)
